Patent US20110213000A1, “N-(2-THIAZOLYL)-AMIDE DERIVATIVES FOR THE TREATMENT OF OBESITY, DIABETES AND CARDIOVASCULAR DISEASES” (ZELTIA, S.A., priority 2007, published 2011)

System: adiponectin promoter
Assay: Luciferase reporter screening of promoter transcriptional activity in stable C2C12 cell lines
Assay type: cell-based, mouse
Conditions: for activation ratio: C2C12 stable line, luciferase, vs vehicle; for concentration at which the greatest transactivation was achieved: dose-response curve of the commercial activator on the target promoter
Text: The following protocol has been followed for the purpose of analyzing the potential therapeutic activity against obesity, type 2 diabetes mellitus and atherosclerosis (ODA metabolic diseases) of the compounds 1-5: • generating cell lines which have stably integrated human promoters of key genes in the development of ODA diseases; • amplifying the human promoter sequence of the target genes starting from commercial human genomic DNA; • cloning the promoter into a suitable vector which allows knowing the transcriptional activity of the promoter sequence, using the luciferase gene as a reporter gene; • generating stable cell lines for each of the promoters cloned into the reporter vectors; • carrying out the screening test with the compounds of the invention on the stable cell lines; • suitably validating the effect obtained with a certain compound which can modify the transcriptional activity of the promoter.
The selected cell line is C2C12, corresponding to myoblasts from mouse muscle tissue.
The luciferase activity is measured according to the following protocol: • a) 50000 and […] cells/well (and in duplicate) are seeded in a P24 plate. • b) After approximately 24 hours, the medium is removed from the cells and each well is washed with PBS 1× (because DMEM interferes in the measurement of the activity of the reporter gene) • c) 100 μl of luciferase developing reagent are added in each cell (Bright-Glo™ Luciferase Assay system—Promega). This reagent carries the reporter gene substrate and luminescence is generated as the product of the enzymatic reaction. The cells which have acquired the reporter gene, and therefore the target promoter, will be luminescent upon being in the presence of said substrate. To record the measurement of luciferase activity, the plate is shaken for 30 seconds right after adding the developing reagent and after 2 minutes, the volume is collected and transferred to a 96-well plate (P96), which can be read in an illuminometer. • d) The suitable luminescence program is selected, such that the reading lasts 5 seconds per well, and the arbitrary luminescence units are recorded for each obtained clone or, in other words, for each stable cell line.
Carrying out the screening test: The clones used in the screening are: C2C12 Adipo (adiponectin promoter), C2C12 UCP3 (UCP3 promoter), C2C12 AdR1 (adiponectin receptor 1 promoter) and C2C12 Nmu (neuromedin promoter).
Before any screening experiment, the suitable number of cells for carrying out such experiments must first be provided. To that end, 2 T75 are usually seeded (with approximately 1×10^6 cells in each bottle), such that after four days, the cells have reached confluence and are ready for the screening protocol detailed below to be carried out. • 1. Day 1: 30000 cells per well are seeded in white P96 plates; these plates allow amplifying the luminescence signal and improving the reading. The cells are grown in 100 μl of hygromycin-free medium. • 2. Day 2: 24 hours after the seeding, the cells are stimulated with compounds 1-5. […]
[drawing 16] • ? In the indicated positions, the baseline transcriptional activity of the promoters to be studied is recorded in the presence of the medium in which compounds 1-5 (vehicle) are dissolved. • ? In the indicated positions, the transcriptional activity of the promoters to be studied is recorded in the presence of a known commercial activator of the target promoter. […]

[1] = 0.5 μM, 48 hours after stimulation
[2] = 1 μM, 48 hours after stimulation
[3] = 10 μM, 48 hours after stimulation
[4] = 25 μM, 48 hours after stimulation
[5] = 5 μM, 48 hours after stimulation
[6] = 20 μM, 48 hours after stimulation

| SMILES | activation ratio (0.1 μM, 48 hours after stimulation) | activation ratio [1] | activation ratio [2] | activation ratio [3] | activation ratio [4] | activation ratio (50 μM, dose-response curve) | activation ratio (100 μM, dose-response curve) | activation ratio (400 μM, dose-response curve) | activation ratio [5] | activation ratio (200 μM, dose-response curve) | activation ratio [6] | concentration at which the greatest transactivation was achieved [µM] |
| --- | --- | --- | --- | --- | --- | --- | --- | --- | --- | --- | --- | --- |
| O=C(Nc1nccs1)c1n[nH]c2ccccc12 [Compound 1, thiazol-2-ylamide compound of 1H-indazole-3-carboxylic acid] | 1.28 | 3.66 | 4.59 | 5.52 | 3.58 | 2.29 | 0.71 | 0.12 |  |  |  |  |
| O=C(Nc1nccs1)c1ccccn1 [Compound 3, pyridin-2-carboxylic acid thiazol-2-yl-amide] |  | 1.40 | 1.71 | 3.82 | 3.73 | 3.20 | 1.61 |  | 3.23 | 0.75 |  |  |
| O=c1c(-c2ccc(O)cc2)coc2cc(O)ccc12 [Daidzein] |  |  | 1.68 | 3.76 |  | 4.05 | 3.71 |  | 3.03 |  | 4.04 | 20 |
| O=c1c(-c2ccc(O)cc2)coc2cc(O)cc(O)c12 [Genistein] |  |  | 1.47 | 3.59 |  | 1.97 | 1.75 |  | 2.25 | 1.59 | 3.05 | 20 |
| CN(CCOc1ccc(CC2SC(=O)NC2=O)cc1)c1ccccn1 (centres unmarked) [Rosiglitazone] |  |  |  |  |  |  |  |  |  |  |  | 20 |
